Source: the supplement of paper PMC11208160

Assay: recombinant barcode read abundance after kanamycin selection (control-corrected) (log10(CPM+1)); higher = more efficient recombination; sequences stand for … in AGTGCAGAGAAAATCGGCCAGTTTTCTCTGCCTGCAGTCCGCATGCCGT…AGATTTATGCAGCGGACTGCCTTTCTCCCAAAGTGATAAACCGGACAGTATCATGGACCGGTTTTCCCGGTAATCCGTATTTGCAAGGTTGGTTTCACT; site = the 11-nt target
Method: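 Pooled E. coli target-specificity screen for the IS621 bridge recombinase. Each library plasmid pairs an 11-nt target (CT core) with a bridge RNA whose target-binding loop (9-nt LTG + 4-nt RTG) is reprogrammed; the rest of the 177-nt WT IS621 bridge RNA scaffold is fixed. The plasmid is co-electroporated with a WT donor plasmid; recombinase is induced with 0.1 mM IPTG and recombinants are selected on kanamycin. Recombinant barcodes are sequenced, converted to CPM, averaged over two biological replicates and corrected by the unselected control CPM. Molecule = full bridge RNA written as DNA: LTG = specificity nt 1-9, RTG = reverse complement of specificity nt 8-11, in the WT scaffold.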
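Wherever recombinant UMI read abundance after kanamycin selection (control-corrected) is given: IS621 bridge recombinase in Escherichia coli cells against a fixed T5 target plasmid.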

Sequence | recombinant barcode read abundance (log10)
TTGACACCTTGGGTTCTAACCTGTTGCCT (site GGAGTCACTCC) | 0.0713
CTAAGCACTTGGGTTCTAACCTGTTGCCG (site CTAAATACTCG) | 0.849
GTCCATTCTTGGGTTCTAACCTGTTGCAT (site GGACATTCTAT) | 0.101
GACTGCCCTTGGGTTCTAACCTGTTGCGG (site GGCGGCCCTCC) | 0.137
GGATAGACTTGGGTTCTAACCTGTTGCGT (site GGATAGACTAC) | 1.95
AATTGGCCTTGGGTTCTAACCTGTTGCGT (site AATGGGCCTAC) | 0.376
GCCAACCCTTGGGTTCTAACCTGTTGCTT (site GCCAACCCTAA) | 0.0414
GGTGGGTCTTGGGTTCTAACCTGTTGCTT (site GGTGGGTCTAA) | 1.9
CGTGGTCCTTGGGTTCTAACCTGTTGCTT (site CGTGGTCCTAG) | 0.342
GAAAGTCCTTGGGTTCTAACCTGTTGCCT (site GAAACTCCTAG) | 0.0877
AATGCTCCTTGGGTTCTAACCTGTTGCAT (site AATGCTCCTAC) | 0.532
CCAGTAGCTTGGGTTCTAACCTGTTGCCT (site CCAGAAGCTAG) | 0.382
GCCGACACTTGGGTTCTAACCTGTTGCCT (site GCCGATACTAG) | 0.17
GGGTCGCCTTGGGTTCTAACCTGTTGCTT (site CGGCCGCCTAA) | 0.364
CCTGCTCCTTGGGTTCTAACCTGTTGCTT (site CCTGCTCCTAA) | 0.393
TAGTAGTCTTGGGTTCTAACCTGTTGCCT (site TAGTAGTCTAC) | 0.0503
GTGTGTCCTTGGGTTCTAACCTGTTGCCT (site GTGTGTCCTAG) | 1.31
CTCGGGCCTTGGGTTCTAACCTGTTGCCT (site ATCGGGCCTAG) | 0.0932
AAAAGCCCTTGGGTTCTAACCTGTTGCCT (site ACAAGCCCTAG) | 0.154
GTTCCAGCTTGGGTTCTAACCTGTTGCCT (site AGCAGCCCTCT) | 0.0192
CCACACTCTTGGGTTCTAACCTGTTGCCT (site CTACACTCTAG) | 0.171
CAGGTACCTTGGGTTCTAACCTGTTGCAT (site CAGGTACCTCT) | 0.864
TAGTTAGCTTGGGTTCTAACCTGTTGCCG (site TAGTTAGCTTG) | 0.0519
TCCGCTTCTTGGGTTCTAACCTGTTGCTT (site AATCGAGCTCC) | 0.0408
CGCGCCTCTTGGGTTCTAACCTGTTGCCG (site CGCGCCTCTCG) | 0.0377
TAAAGTACTTGGGTTCTAACCTGTTGCTT (site TAATGTACTAA) | 0.0546
TACCTGTCTTGGGTTCTAACCTGTTGCTT (site TACCGGTCTAA) | 0.543
TGCTGTTCTTGGGTTCTAACCTGTTGCCT (site TGCTGTTCTAG) | 0.187

Assay: recombinant UMI read abundance after kanamycin selection (control-corrected) (log10(CPM+1)); higher = more efficient recombination; extreme values may be limits of the assay; sequences stand for … in AGTGCAGAGAAAATCGGCCAGTTTTCTCTGCCTGCAGTCCGCATGCCGTGGGACCCCTTGGGTTCTAACCTGTTGCCTAGATTTATGCAGCGGACTGCCTTTCTCCCAAAGTGATAAACCGG…AGGTTGGTTTCACT; site = the 11-nt donor
Summary of the method: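 For the IS621 bridge recombinase, a pooled Escherichia coli screen tested donor and donor-binding-loop pairs. Cells received the pair library together with a target plasmid encoding a fixed target and T7-inducible recombinase, then went onto IPTG (0.07 mM) plus kanamycin or unselected plates in duplicate. After PCR across the donor–target junction and sequencing, recombinant UMI counts were normalized to CPM, averaged, and scaled by control-derived factors. Each value is given as log10(CPM+1).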

Sequence | recombinant UMI read abundance (log10)
TAGGGGACATGGACCGGTTTTCCCGGTAATCCGTATTTGAA (site TAGGGGACTTT) | 1.24
GATTATCCATGGACCGGTTTTCCCGGTAATCCGTATTTGCT (site GATTTTCCTAG) | 0
GACTTTCCATGGACCGGTTTTCCCGGTAATCCGTATTTGAC (site GACTTTCCTGT) | 0.0655
AACCGTCCATGGACCGGTTTTCCCGGTAATCCGTATTTGTT (site AACCGTCCTAG) | 0.794
ATTTAAACATGGACCGGTTTTCCCGGTAATCCGTATTTGAC (site ATTTAAACTGT) | 1.18
TATCTGGCATGGACCGGTTTTCCCGGTAATCCGTATTTGTG (site TATATGGCTCA) | 0.0189
GAGCTCTCATGGACCGGTTTTCCCGGTAATCCGTATTTGAT (site GAGCTCACTAT) | 0.0184
